Assay results as given in PMC6837341, “Evolutionarily conserved susceptibility of the mitochondrial respiratory chain to SDHI pesticides and its consequence on the impact of SDHIs on human cultured cells” (PLoS ONE, 2019).

How the values were obtained:
[1] = molecular target: T1, glycerol-3-phosphate cytochrome c reductase (G3PDH+CIII) (Homo sapiens, UniProt P00156); test: Glycerol-3-phosphate cytochrome c reductase (GCCR) activity, freeze-thawed HEK cells; assay type: biochemical
T1 construct: the pellets were permeabilized by two freeze-thaw cycles before enzyme assays; endogenous in cells; host or cells: HEK293, freeze-thawed cell pellets
Experimental: (§1) The cells were grown in T75 flasks using 10 ml Dulbecco’s modified Eagle's minimal essential medium (DMEM) either containing 1 or 4.5 g/l glucose, 4 mM glutamine (glutamax; Gibco Thermo Fisher Scientific, MA), 2 mM pyruvate and 200 μM uridine (permissive medium, thereafter referred as GlucoMax) or lacking glucose, pyruvate and uridine but containing 4 mM glutamine (nonpermissive medium, thereafter referred as MitoMax; S1 Table). All media were supplemented with 10% fetal calf serum and 100 U/mL each penicillin and streptomycin. HEK293 human embryonic kidney cells were cultured in DMEM containing 4.5 g/L glucose, 4 mM glutamine, 10% fetal calf serum, 200 μM uridine, 2 mM pyruvate, and 100 U/mL each penicillin and streptomycin [9]. Cell pellets (1,500 g for 5 min) were kept frozen (-80°C), and for biochemical studies, the pellets were permeabilized by two freeze-thaw cycles before enzyme assays.
(§2) RC enzyme activities were spectrophotometrically measured using a pseudo-double-wavelength spectrophotometer (Cary 60, Agilent). Malonate-sensitive succinate quinone dichlorophenolindophenol (DCPIP) reductase (SQDR), as an indicator of the activity of the isolated SDH enzyme (isolated CII), and glycerol-3-phosphate quinone DCPIP reductase (GQDR), as a measure of the activity of the isolated glycerol-3-phosphate dehydrogenase (G3PDH), were assayed as previously described. To study the effect of SDHIs on the RC, we had to take into consideration the fact that these inhibitors act through binding to quinone-binding sites in the RC. Accordingly, we observed that the extent of the inhibitory effects of these substances varies with the addition of exogenous quinones (Fig 1). […] With this aim, we measured the malonate-sensitive succinate cytochrome c reductase (SDH+CIII), glycerol-3-phosphate cytochrome c reductase (G3PDH+CIII) and antimycin-sensitive quinol cytochrome c reductase (CIII) as previously described.
(§3) The effects of eight different SDHIs (up to 500 μM; S2 Fig) were determined on four different biological materials. Because IC50 are known to be affected by the actual absolute activity of the tested enzyme, these IC50 were quantified using similar levels of SDH enzyme activity during the assay. IC50 values were determined using the AAT Bioquest IC50 calculator tool (https://www.aatbio.com/tools/ic50-calculator).

[2] = molecular target: T2, quinol cytochrome c reductase (CIII) (Homo sapiens, UniProt P00156); test: Antimycin-sensitive quinol cytochrome c reductase (QCCR) activity, freeze-thawed HEK cells; assay type: biochemical
T2 construct: the pellets were permeabilized by two freeze-thaw cycles before enzyme assays; endogenous in cells; host or cells: HEK293, freeze-thawed cell pellets
Experimental: as §1, §2, §3

[3] = according to European regulations; ref European regulations; cited from earlier work
[4] = molecular target: succinate cytochrome c reductase (SDH+CIII) (Homo sapiens, UniProt O14521+P21912+Q99643); test: Malonate-sensitive succinate cytochrome c reductase (SCCR) activity, freeze-thawed HEK cells; assay type: biochemical; parameters: the pellets were permeabilized by two freeze-thaw cycles before enzyme assays; endogenous in cells; host or cells: HEK293, freeze-thawed cell pellets; conditions: IC50 SCCR, no exogenous quinone, n ≥ 3
Chain of succinate cytochrome c reductase (SDH+CIII) (P21912 29-280): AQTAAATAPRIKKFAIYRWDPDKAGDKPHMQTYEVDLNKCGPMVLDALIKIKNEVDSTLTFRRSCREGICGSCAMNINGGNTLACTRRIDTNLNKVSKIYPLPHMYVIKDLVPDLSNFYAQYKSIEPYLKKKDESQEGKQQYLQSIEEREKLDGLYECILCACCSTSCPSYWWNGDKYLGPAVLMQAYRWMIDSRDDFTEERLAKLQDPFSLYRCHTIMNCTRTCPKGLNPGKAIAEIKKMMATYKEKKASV
Chain of succinate cytochrome c reductase (SDH+CIII) (Q99643 30-169): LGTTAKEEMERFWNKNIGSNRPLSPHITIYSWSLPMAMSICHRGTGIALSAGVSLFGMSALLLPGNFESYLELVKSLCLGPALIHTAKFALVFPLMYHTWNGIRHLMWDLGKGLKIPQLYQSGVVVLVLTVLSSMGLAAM
Chain of succinate cytochrome c reductase (SDH+CIII) (O14521 57-159): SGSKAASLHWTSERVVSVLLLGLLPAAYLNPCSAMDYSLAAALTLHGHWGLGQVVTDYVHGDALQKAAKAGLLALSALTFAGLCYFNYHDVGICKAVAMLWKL
Chain of succinate cytochrome c reductase (SDH+CIII) (P31040 43-664 partner): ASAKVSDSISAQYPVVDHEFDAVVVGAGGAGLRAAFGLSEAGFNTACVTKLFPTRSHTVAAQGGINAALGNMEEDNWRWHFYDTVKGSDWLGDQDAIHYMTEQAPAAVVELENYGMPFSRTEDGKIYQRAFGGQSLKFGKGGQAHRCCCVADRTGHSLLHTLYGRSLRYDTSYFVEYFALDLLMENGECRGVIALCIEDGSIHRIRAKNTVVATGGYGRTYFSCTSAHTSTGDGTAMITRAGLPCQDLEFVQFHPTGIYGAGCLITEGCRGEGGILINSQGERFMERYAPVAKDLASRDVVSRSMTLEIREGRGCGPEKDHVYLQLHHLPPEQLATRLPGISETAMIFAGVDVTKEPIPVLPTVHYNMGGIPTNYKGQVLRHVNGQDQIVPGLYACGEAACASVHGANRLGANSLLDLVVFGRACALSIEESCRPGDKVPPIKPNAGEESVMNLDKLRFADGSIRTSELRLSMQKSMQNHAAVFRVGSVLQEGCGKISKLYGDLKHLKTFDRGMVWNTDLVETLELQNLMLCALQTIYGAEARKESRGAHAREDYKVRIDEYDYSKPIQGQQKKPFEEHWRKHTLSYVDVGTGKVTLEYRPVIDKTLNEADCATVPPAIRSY
Experimental: as §1, §2, §3

## O=C(NCCc1ncc(C(F)(F)F)cc1Cl)c1ccccc1C(F)(F)F [Fluopyram, fluopyram]
[1]
  IC50: > 500 µM
[2]
  IC50: > 500 µM
[3]
  ADI (Acceptable Daily Intake): 0.012 mg/kg/day
[4]
  IC50: 160 µM
